Where two headings read alike, the source gives them in different places.
Columns and labels:
Assay type in all cases: cell-based, human
Mewo cells = assay: Proliferation inhibition, CellTiter-Glo, Mewo; conditions: Table D-2, Mewo (NF1 LOF), 3 days, read-out: Prolif. (proliferation EC50)
Description: (§1) All cancer cell lines (A375, A101D, A2058, RKO, HT29 SK-MEL 30, IPC298, HepG2, HCT-116, Lovo, SW620, SW480, NCI-H358, NCI-H2122, Calu-6, NCIH2087, NCIH1755, NCIH1666 and Mewo) were obtained from ATCC and cultured in RPM1-1640 medium (Gibco) supplemented with 5% heat inactivated fetal bovine serum (FBS, Wisent) at 37° C. under 5% CO2. Cells were maintained in T175 flasks (Greiner). They were passaged by removing the culture medium, washing once in 10 mL of room temperature Phosphate Buffered Saline (PBS; Wisent) and incubating at 37° C. with 2 mL of 0.05% Trypsin (Thermo-Fisher). Trypsin was then inactivated by adding complete growth medium and the cells were then replated in a T175 culture dish at the appropriate dilution. All cell lines were routinely tested for mycoplasma contamination. Tissue type and mutational status of each cell line can be found in Table B.
(§2) CellTiter-Glo® viability analysis was conducted on cells plated in 100 μL of complete RPMI-1640 growth medium in 96-well flat-bottomed white opaque plates (Greiner or Croning) at a density indicated in Table E (for each CCL, number of cells plated per well of a 96-well plate to perform the CellTiter-Glo® cell viability assay). The cell density in cells/cm^2 would correspond to cell number divided by the area of one well of a 96-well plate (0.32 cm^2). […]
(§3) After 3 days of incubation, the growth media were removed by aspiration and 60 μL of diluted CellTiter-Glo® reagent (10 μL CellTiter-Glo® reagent+50 μL of PBS) was added to each well. […] Luminescence signals were then acquired on a Synergy Neo2 plate reader (Biotek).
(§4) The effect of each compound dilution on the proliferation of cancer cell lines was expressed in % inhibition and calculated as follows. […]
(§5) The ability of each compound to inhibit proliferation was expressed as a EC50 value obtained by plotting the effect values for each data point of a dilution series and fitting the obtained curves using a log(agonist) versus response—variable slope (four parameters) function using GraphPadPrism (V7.0) or Dotmatics Screening Ultra platform.

pERK, Mewo cells = assay: Phospho-ERK inhibition, AlphaLISA p-ERK 1/2, Mewo; conditions: Table D-2; for IC50: Mewo (NF1 LOF); for pERK value in parentheses, % inhibition (Ymin): Mewo, lowest point of IC50 curve
Description: as §1
(c) Measurement of Phospho-ERK Inhibition in Cultivated Human Cancer Cell Lines by the AlphaLISA® SureFire® Ultra™ p-ERK 1/2 (Thr2O2/Tyr204)
AlphaLISA® SureFire® Ultra™ p-ERK 1/2 (Thr202/Tyr204) analysis was conducted on cells plated in 100 μL of complete RPMI-1640 growth medium in 96-well flat-bottomed transparent dishes (Costar) at a density indicated in Table C. Cells were maintained overnight at 37° C. under 5% CO2 before treatment with compounds' dilution series for one hour. The cell density in cells/cm^2 corresponds to cell number divided by the area of one well of a 96-well plate (0.143 cm^2).
In a dilution series 100 μL/well of test substance dilution prepared in complete RPMI-1640 growth media was added to the cells. The dilution series is selected so that ten concentrations cover a range from 10 μM to 0.33 nM. If necessary, the initial concentration of 10 μM is increased to 100 μM or lowered to 1 μM (as in the case of A375 and H1666 cells, which are generally more sensitive to the compounds) and further dilution is carried out accordingly. The final concentration of DMSO in the assay is set at 0.5%.
After treatment, media was removed, and cells were lysed in 50 μL of 1× AlphaScreen Ultra Lysis Buffer (Perkin Elmer). The AlphaLISA® SureFire® Ultra™ p-ERK 1/2 (Thr202/Tyr204) (PerkinElmer) reactions were performed with 5 μL of cell lysate according to the manufacturer's specifications in 384-well proxyplates (Perkin Elmer) followed by overnight incubation of the reactions at room temperature in a humidified chamber. After completion of the reactions, the signals were recorded on an EnVision plate reader (Perkin Elmer) using built in AlphaLISA® settings.
The effect of each compound dilution on the pERK signal was expressed in % inhibition and calculated as follows. An internal 100% inhibition control (1 μM trametinib, cat. No. HY-10999; MedChem Express; CAS No. 871700-17-3) was included in each plate and used as a measure of pERK background. First, the value obtained for trametinib was subtracted from each data point. The average of DMSO (vehicle) controls (set as 0% inhibition) was established and used to calculate % inhibition:
as §5, with “pERK signal” for “proliferation”, “an IC50” for “a EC50”, “inhibition” for “effect”
When present, paradoxical pERK induction is inferred from the negative % inhibition values observed in the pERK IC50 curves of a compound.

SW620 cells = assay: Proliferation inhibition, CellTiter-Glo, SW620; conditions: Table D-2, SW620 (KRAS-G12V), 3 days, read-out: Prolif. (proliferation EC50)
Description: as §1, §2, §3, §4, §5

Calu6 cells = assay: Proliferation inhibition, CellTiter-Glo, Calu-6; conditions: Table D-2, Calu6 (KRAS Q61K), 3 days, read-out: Prolif. (proliferation EC50)
Description: as §1, §2, §3, §4, §5

RKO cells = assay: Proliferation inhibition, CellTiter-Glo, RKO; conditions: Table D-1, RKO (BRAF V600E), 3 days, read-out: Prolif. (proliferation EC50)
Description: as §1, §2, §3, §4, §5

IPC298 cells = assay: Proliferation inhibition, CellTiter-Glo, IPC298; conditions: Table D-1, IPC298 (NRAS-Q61L), 3 days, read-out: Prolif. (proliferation EC50)
Description: as §1, §2, §3, §4, §5

IC50 (pERK, Mewo cells; Homo sapiens) [nM]	EC50 (SW620 cells; Homo sapiens, SW-620, 72 h) [nM]	EC50 (Calu6 cells; Homo sapiens, Calu-6, 72 h) [nM]	IC50 (pERK, Mewo cells) [nM]	EC50 (SW620 cells) [nM]	EC50 (Calu6 cells) [nM]	SMILES	EC50 (Mewo cells; Homo sapiens, 72 h) [nM]	pERK value in parentheses, % inhibition (Ymin) (pERK, Mewo cells)	EC50 (RKO cells; Homo sapiens, 72 h) [nM]	EC50 (IPC298 cells; Homo sapiens, IPC-298, 72 h) [nM]	EC50 (Mewo cells) [nM]	EC50 (RKO cells) [nM]	EC50 (IPC298 cells) [nM]
30 to 300	300 to 3000	< 300	–	–	–	Cc1ccc2c(Nc3cccc(Cl)c3F)nccc2c1NC(=O)c1csc2c(N)ncnc12 [Belvarafenib, reference compound]	300 to 3000	(−116) %	< 300	< 300	–	–	–
–	–	–	< 30	< 300	< 300	Cc1c(F)cccc1S(=O)(=O)Nc1ccc(F)c(Nc2ncnc3sc(-n4cc(C(=O)N5C6CCC5CN(C)C6)c5ccccc54)nc23)c1F [Example 44]	–	(3) %	–	–	< 300	< 300	< 300
–	–	–	30 to 300	< 300	< 300	N#CC1(c2cccc3c2ncn3-c2nc3c(Nc4c(F)ccc(NS(=O)(=O)c5cccc(Cl)c5Cl)c4F)ncnc3s2)CC1 [Example 122]	–	(2) %	–	–	< 300	< 300	< 300
